These results are taken from ChEMBL document CHEMBL1159126, “Salicylanilide carbamates: antitubercular agents active against multidrug-resistant Mycobacterium tuberculosis strains” (Bioorg Med Chem, 2010).

Each structure is given as a SMILES string. In brackets after ≈: the same amount, converted by molar mass.

Series [1] relates to Mycobacterium avium. The experiment in a line: Antimycobacterial activity against Mycobacterium avium 330/88 after 21 days by micromethod. The format is functional. As to conditions: 330/88, 504 h.
In series [2] the test system is Mycobacterium kansasii. The experiment in a line: Antimycobacterial activity against Mycobacterium kansasii 235/80 after 14 days by micromethod. The format is functional. As to conditions: 235/80, 336 h.
Series [3] relates to Mycobacterium kansasii. The experiment in a line: Antimycobacterial activity against Mycobacterium kansasii 235/80 after 21 days by micromethod. Type of series: functional. Conditions: 235/80, 504 h.
A short description of series [4]: Partition coefficient, log P of the compound. As to conditions: octanol/water. Type of series: physicochemical.
In series [5] the test system is Mycobacterium kansasii. The experiment in a line: Antimycobacterial activity against Mycobacterium kansasii 6509/96 after 14 days by micromethod. The format is functional. Conditions: 6509/96, 336 h.
The subject of series [6] is Mycobacterium kansasii. Briefly: Antimycobacterial activity against Mycobacterium kansasii 6509/96 after 21 days by micromethod. Type of series: functional. Conditions: 6509/96, 504 h.
The nature of series [7]: Toxicity against human HCT8 cells after 72 hrs by XTT assay. The format is cell-based, HCT-8.
Series [8] is described as follows: Stability in 100 mM phosphate buffer at pH 3 assessed as compound degradation by HPLC. The format is physicochemical.
Series [9] can be described thus: Stability in 100 mM phosphate buffer at pH 4 assessed as compound degradation by HPLC. The format is physicochemical.
Series [10] can be described thus: Stability in 100 mM phosphate buffer at pH 5 assessed as compound degradation by HPLC. The format is physicochemical.
The nature of series [11]: Stability in 100 mM phosphate buffer at pH 6 assessed as compound degradation by HPLC. Type of series: physicochemical.
A short description of series [12]: Stability in 100 mM phosphate buffer at pH 7 assessed as compound degradation by HPLC. Type of series: physicochemical.
Series [13] in a line: Stability in 100 mM phosphate buffer at pH 7.4 assessed as compound degradation by HPLC. The format is physicochemical.
A short description of series [14]: Stability in 100 mM phosphate buffer at pH 8 assessed as compound degradation by HPLC. Type of series: physicochemical.
Series [15] deals with Mycobacterium avium. Briefly: Antimycobacterial activity against Mycobacterium avium 330/88 after 14 days by micromethod. The format is functional. Conditions: 330/88, 336 h.
The subject of series [16] is Mycobacterium tuberculosis. Briefly: microbe, parasite or virus in culture. Conditions: 331/88, 336 h.
Description: Antimycobacterial activity against Mycobacterium tuberculosis 331/88 after 14 days by micromethod
Series [17] has as its system Mycobacterium tuberculosis. The experiment in a line: microbe, parasite or virus in culture. Conditions: 331/88, 504 h.
Description: Antimycobacterial activity against Mycobacterium tuberculosis 331/88 after 21 days by micromethod

Usually logP stands for the decadic logarithm of the partition coefficient of the neutral form, usually between octanol and water. The EC50 is the concentration needed to bring the measured effect to its halfway point. Lower therefore signals greater potency. The term half-life denotes the time in which the quantity being followed falls by half. As to `CCCCCCNC(=O)Oc1ccc(Cl)cc1C(=O)Nc1ccc(Cl)c(Cl)c1`, the MIC against Mycobacterium avium [1] was 8 µM (≈ 3.55 µg/mL); against Mycobacterium kansasii [2], 2 µM (≈ 0.888 µg/mL); in the series on Mycobacterium kansasii [3] it was 2 µM (≈ 0.888 µg/mL); in the series with Mycobacterium kansasii [5] it was 1 µM (≈ 0.444 µg/mL); against Mycobacterium kansasii [6], 2 µM (≈ 0.888 µg/mL); in the series with Mycobacterium avium [15] it was 4 µM (≈ 1.78 µg/mL). Moreover, the MIC in series [16] and in [17] was 0.5 µM (≈ 0.222 µg/mL) throughout. The compound also had a logP in series [4] of 6.08. This compound yielded an EC50 at 72 h in [7] of 27.9 µM. Further, the Stability entry in series [8], in series [9] and in series [10] was “Stable” in each case. Besides, the half-life is 118 h in series [11], 64 h in [12], 43 h in series [13] and 5 h in series [14].

As for `CCCCCNC(=O)Oc1ccc(Cl)cc1C(=O)Nc1ccc(Cl)c(Cl)c1`, the MIC against Mycobacterium avium [1] turned out to be 16 µM (≈ 6.88 µg/mL); against Mycobacterium kansasii [2], 2 µM (≈ 0.859 µg/mL); in the series with Mycobacterium kansasii [3], 2 µM (≈ 0.859 µg/mL); in the series with Mycobacterium kansasii [5], 2 µM (≈ 0.859 µg/mL); against Mycobacterium kansasii [6] it was 4 µM (≈ 1.72 µg/mL); in the series on Mycobacterium avium [15], 8 µM (≈ 3.44 µg/mL). In addition, the MIC in [16] and in series [17] was 0.5 µM (≈ 0.215 µg/mL) each time. For the same compound, in series [4], the logP was 5.67. Further, a half-maximal response in series [7] (EC50 at 72 h) required 40 µM.

On to `CCCCCCCCNC(=O)Oc1ccc(Cl)cc1C(=O)Nc1ccc(Cl)c(Cl)c1`, for which the MIC with Mycobacterium avium [1] is 8 µM (≈ 3.77 µg/mL); in the series on Mycobacterium kansasii [2] it was 2 µM (≈ 0.944 µg/mL); against Mycobacterium kansasii [3], 4 µM (≈ 1.89 µg/mL); in the series on Mycobacterium kansasii [5] it was 2 µM (≈ 0.944 µg/mL); in the series on Mycobacterium kansasii [6], 4 µM (≈ 1.89 µg/mL); against Mycobacterium avium [15] it was 4 µM (≈ 1.89 µg/mL). Also, the MIC in series [16] came out at 0.5 µM (≈ 0.236 µg/mL); in series [17], 1 µM (≈ 0.472 µg/mL). Also, the logP in [4] is 6.92. In addition, in series [7], the EC50 at 72 h turned out to be 48.5 µM.

In the case of `CCCCCNC(=O)Oc1ccc(Cl)cc1C(=O)Nc1ccc(Cl)cc1`, the MIC with Mycobacterium avium [1] is 8 µM (≈ 3.16 µg/mL); in the series on Mycobacterium kansasii [2], 2 µM (≈ 0.791 µg/mL); with Mycobacterium kansasii [3] it was 4 µM (≈ 1.58 µg/mL); with Mycobacterium kansasii [5], 4 µM (≈ 1.58 µg/mL); in the series on Mycobacterium kansasii [6] it was 4 µM (≈ 1.58 µg/mL); in the series on Mycobacterium avium [15], 8 µM (≈ 3.16 µg/mL). For the same compound, the MIC in [16] and in series [17] was 0.5 µM (≈ 0.198 µg/mL) in each case. The compound also displayed a logP in series [4] of 5.11. Further, it took 17.4 µM to reach a half-maximal effect in series [7] (EC50 at 72 h).

Take `CCNC(=O)Oc1ccc(Cl)cc1C(=O)Nc1ccc(Cl)c(Cl)c1`: the MIC with Mycobacterium avium [1] is 32 µM (≈ 12.4 µg/mL); against Mycobacterium kansasii [2] it was 2 µM (≈ 0.775 µg/mL); against Mycobacterium kansasii [3], 4 µM (≈ 1.55 µg/mL); against Mycobacterium kansasii [5], 2 µM (≈ 0.775 µg/mL); against Mycobacterium kansasii [6], 4 µM (≈ 1.55 µg/mL); in the series on Mycobacterium avium [15], 16 µM (≈ 6.2 µg/mL). Further, the MIC in series [16] came out at 0.5 µM (≈ 0.194 µg/mL); in [17], 1 µM (≈ 0.388 µg/mL). This compound came in with a logP in [4] of 4.35. In addition, in series [7], the EC50 at 72 h was determined as 31 µM.
